In ChEMBL document CHEMBL1201862, “PubChem BioAssay data set” (2004):
Structures can show the parent of a compound that is named as a salt.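 The compound was tested at five concentrations on cells cultured in 96-well plates, with a 48-hour exposure period. GI50 is the concentration that inhibits growth by half.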 The source made the active and inactive calls. Rule as the data show it: active = GI50 up to about 1.1 µM and inactive = higher.

Legend:
Test in all cases: growth of human tumour cells (NCI), 48 h
[1] = tested on: 786-0
[2] = tested on: BT-549
[3] = tested on: CCRF-CEM
[4] = tested on: DU-145
[5] = tested on: EKVX
[6] = tested on: HCC 2998
[7] = tested on: HOP-92
[8] = tested on: HT-29
[9] = tested on: Hs-578T
[10] = tested on: MCF7
[11] = tested on: MDA-MB-231
[12] = tested on: MOLT-4
[13] = tested on: NCI-H226
[14] = tested on: NCI/ADR-RES
[15] = tested on: RPMI-8226
[16] = tested on: SK-MEL-2
[17] = tested on: SNB-75
[18] = tested on: SW-620
[19] = tested on: UO-31
[20] = tested on: LOX IMVI

Compound | GI50 [1] | GI50 [2] | GI50 [3] | GI50 [4] | GI50 [5] | GI50 [6] | GI50 [7] | GI50 [8] | GI50 [9] | GI50 [10] | GI50 [11] | GI50 [12] | GI50 [13] | GI50 [14] | GI50 [15] | GI50 [16] | GI50 [17] | GI50 [18] | GI50 [19] | GI50 [20]
CN[C@@H](C)[C@H](OP(=O)(O)OC1[C@@H](O)[C@H](O)C(O)[C@H](O)[C@@H]1O)c1ccccc1 (some centres not stated) | > 100 µM (inactive) | > 100 µM (inactive) | > 100 µM (inactive) | > 100 µM (inactive) | > 100 µM (inactive) | > 100 µM (inactive) | > 100 µM (inactive) | > 100 µM (inactive) | > 100 µM (inactive) | > 100 µM (inactive) | > 100 µM (inactive) | > 100 µM (inactive) | > 100 µM (inactive) | > 100 µM (inactive) | > 100 µM (inactive) | > 100 µM (inactive) | > 100 µM (inactive) | > 100 µM (inactive) | > 100 µM (inactive) | –
O=C(O)c1cc2ccccc2c(/N=N/c2ccc(S(=O)(=O)Nc3ccccn3)cc2)c1O | > 100 µM (inactive) | > 100 µM (inactive) | > 100 µM (inactive) | > 100 µM (inactive) | > 100 µM (inactive) | > 100 µM (inactive) | > 100 µM (inactive) | > 100 µM (inactive) | > 100 µM (inactive) | > 100 µM (inactive) | > 100 µM (inactive) | > 100 µM (inactive) | > 100 µM (inactive) | > 100 µM (inactive) | > 100 µM (inactive) | > 100 µM (inactive) | > 100 µM (inactive) | > 100 µM (inactive) | > 100 µM (inactive) | –
CC1=C(C)C(=O)C(C2=C(C3=CC(=O)C(C)=C(C)C3=O)C(=O)C(C)=C(C)C2=O)=CC1=O | 5.06 µM (inactive) | 10 µM (inactive) | > 100 µM (inactive) | 14 µM (inactive) | 20.8 µM (inactive) | 15.2 µM (inactive) | 0.61 µM (active) | 3.01 µM (inactive) | 16.1 µM (inactive) | 2.67 µM (inactive) | 2.07 µM (inactive) | 0.697 µM (active) | 11 µM (inactive) | 1.13 µM (inactive) | – | 14.5 µM (inactive) | 16.6 µM (inactive) | 3.32 µM (inactive) | 4.59 µM (inactive) | 2.57 µM (inactive)
O=C(O)C1CC(c2ccc(F)cc2)=Nc2ccc(F)cc2S1 (configuration not stated) | > 100 µM (inactive) | > 100 µM (inactive) | > 100 µM (inactive) | > 100 µM (inactive) | > 100 µM (inactive) | > 100 µM (inactive) | > 100 µM (inactive) | > 100 µM (inactive) | > 100 µM (inactive) | > 100 µM (inactive) | > 100 µM (inactive) | > 100 µM (inactive) | > 100 µM (inactive) | > 100 µM (inactive) | > 100 µM (inactive) | > 100 µM (inactive) | > 100 µM (inactive) | > 100 µM (inactive) | > 100 µM (inactive) | –
O=C(Nc1ccc2nc(-c3ccccc3)cn2c1)Oc1ccccc1 | 91 µM (inactive) | > 100 µM (inactive) | 39.7 µM (inactive) | 41.7 µM (inactive) | 80 µM (inactive) | 25.2 µM (inactive) | > 100 µM (inactive) | 43.1 µM (inactive) | > 100 µM (inactive) | 35.4 µM (inactive) | > 100 µM (inactive) | 40.6 µM (inactive) | > 100 µM (inactive) | 33.8 µM (inactive) | – | 46.7 µM (inactive) | 2.99 µM (inactive) | 48.6 µM (inactive) | > 100 µM (inactive) | 52 µM (inactive)
COc1ccc(P2(=S)Oc3ccccc3-c3ccccc3O2)cc1 | 0.531 µM (active) | > 100 µM (inactive) | 0.356 µM (active) | 0.542 µM (active) | – | 0.443 µM (active) | 4.18 µM (inactive) | 0.274 µM (active) | 0.466 µM (active) | 0.377 µM (active) | 0.439 µM (active) | 0.437 µM (active) | 7.1 µM (inactive) | 0.902 µM (active) | – | 0.596 µM (active) | 0.337 µM (active) | 0.423 µM (active) | 0.518 µM (active) | 0.661 µM (active)
CN[C@@H]1[C@H](O)[C@H](NC)[C@H]2O[C@@]3(O)C(=O)C[C@@H](C)O[C@H]3O[C@@H]2[C@H]1O [SPECTINOMYCIN SULFATE] | > 10 µM (inactive) | > 100 µM (inactive) | > 100 µM (inactive) | > 100 µM (inactive) | > 100 µM (inactive) | > 100 µM (inactive) | > 100 µM (inactive) | > 100 µM (inactive) | > 100 µM (inactive) | > 100 µM (inactive) | > 100 µM (inactive) | > 100 µM (inactive) | > 100 µM (inactive) | > 100 µM (inactive) | > 100 µM (inactive) | – | > 100 µM (inactive) | > 100 µM (inactive) | > 100 µM (inactive) | > 100 µM (inactive)
